Marks after values point to notes of the source that are not given here.
Legend:
Format in all cases: cell-based, human
[1] = test system: PBMCs from melanoma patients; experiment: PBMC proliferation assay (tritiated thymidine incorporation); settings: for stimulation index: both peptides
Experimental: For proliferation assays, PBMCs were cultured in tetra-triplicate in 96-well flat-bottomed microtiter plates (Costar Corp., Cambridge, Mass.) at the concentration of 2×10^5 cells/well in 100 μl of complete RPMI 1640 containing L-glutamine and 10% fetal bovine serum. […] PBMCs were cultured for 6 days at 37° C. in a 5% CO2 atmosphere before addition of tritiated thymidine at a concentration of 1 μCi/well. Results are expressed as cpm of tritiated thymidine incorporated and as a stimulation index (Hogan et al. J Immunol 1989; 142:2097-104). The latter is the average cpm of lymphocytes cultured with peptide divided by the average cpm of lymphocytes cultured without peptide. […] After 5 additional days of culture at 37° C. cells were washed, replated, and restimulated at a 1:1 stimulator to responder ratio with irradiated (30 Gy) autologous PBMC stimulators and peptides at concentrations of 5, 25, and 50 μg/ml. IL-2 was added after 96 h, and cells were cultured for an additional 5 days at 37° C., after which they were restimulated for an additional 10 days at 37° C. Lymphocytes stimulated over three cycles were collected and used as effectors in a cytotoxicity (CTL) assay.

[2] = test system: PBMCs from melanoma patients; experiment: IFN-γ and IL-10 release by peptide-stimulated PBMC (double sandwich ELISA); settings: for IL-10 levels after restimulation / IFN-γ levels: HLA-A2+ patient 6, 2° STIM, 25 μg/ml; for IFN-γ levels: comparison between peptides (P>0.05); for IFN-γ:IL-10 ratio: 2° STIM; for average IFN-γ levels after 2° STIM: peptides 25 μg/ml
Experimental: Interaction of T cells with Ag can induce a few cycles of division resulting in Ag-primed uncommitted T cells or can induce T cells to differentiate and gain effector function. The effector function is best characterized by the ability of Ag-stimulated T cells to secrete Th1 cytokines and to mediate lysis of specific targets. To determine whether T cells from immunized patients acquired cytokine effector function, IFN-γ and IL-10 were measured in supernatants harvested from PBMC cultures stimulated with I-100 and I-102 peptides. To measure cytokine release, supernatants were collected at 24, 48, and 72 h after primary and secondary stimulation with 5, 25, and 50 μg/ml of peptides and stored frozen at −20° C. IFN-γ and IL-10 levels were measured by a double sandwich ELISA using the corresponding kits supplied by Biosource International. Assays were calibrated with human recombinant IFN-γ and IL-10 to detect each cytokine in a range of 15-1000 pg/ml.
IL-10 was assayed instead of IL-4 as a representative Th2 cytokine, because the PBMCs used as responders were from patients with melanoma. Therefore, they might contain regulatory cells. Patient 6 had supernatants saved from two separate experiments. […] Because after priming, all of the stimulated PBMCs were expanded in IL-2, we determined the effect of culturing PBMCs in IL-2 on IFN-γ induction.

[3] = test system: T2 cells pulsed with peptide; experiment: 51Cr release CTL assay against peptide-pulsed T2 cells; settings: for lysis of T2-I-100 by peptide-stimulated CTL: immunized HLA-A2+ patients 1 and 6, E:T 30:1, 4 hour 51Cr release; for lysis of T2 cells pulsed with the stimulating peptide by peptide-stimulated CTL: nonimmunized HLA-A2+ patient 4, E:T 30:1, 4 hour; for lysis of T2-I-100 and T2-I-102 targets by peptide-stimulated lymphocytes: nonimmunized HLA-A2− patient 5
Description: FIGS. 5A-5E are graphical representations of cytolytic activity of NP, I-100 and I-102-CTL from HLA-A2 immunized patients # 1 and # 6 (FIGS. 5A and 5B, respectively) and from HLA-A2, non-immunized patient # 4 (FIG. 5C) against T2-NP (▪) and T2-I-100 (□) targets. FIG. 5D depicts lytic activity of NP- and I-102-CTL from HLA-A2^− patient #3 against T2-NP (▪) and T2-I-100 (□) targets. FIG. 5E depicts CTL lysis by NP-, I-100-, and I-102-CTL effectors from […] patient #5 against T2-I-100 targets. The E:T ratio was 30:1 in a 4 hour 51Cr release assay; bars, ±S D.
For proliferation assays, PBMCs were cultured in tetra-triplicate in 96-well flat-bottomed microtiter plates (Costar Corp., Cambridge, Mass.) at the concentration of 2×10^5 cells/well in 100 μl of complete RPMI 1640 containing L-glutamine and 10% fetal bovine serum. Peptides I-100 and I-101 were added at 5, 25, and 50 μg/ml in serum-free RPMI 1640 up to a total volume of 200 μl. PBMCs were cultured for 6 days at 37° C. in a 5% CO2 atmosphere before addition of tritiated thymidine at a concentration of 1 μCi/well. Results are expressed as cpm of tritiated thymidine incorporated and as a stimulation index (Hogan et al. J Immunol 1989; 142:2097-104). The latter is the average cpm of lymphocytes cultured with peptide divided by the average cpm of lymphocytes cultured without peptide. […] Peptide-specific T cells were propagated by adding recombinant interleukin (IL)2 (90 IU/ml; Biosource International, Camarillo, Calif.) to PBMCs that had been cultured for 96 h at 37° C. with peptides. After 5 additional days of culture at 37° C. cells were washed, replated, and restimulated at a 1:1 stimulator to responder ratio with irradiated (30 Gy) autologous PBMC stimulators and peptides at concentrations of 5, 25, and 50 μg/ml. IL-2 was added after 96 h, and cells were cultured for an additional 5 days at 37° C., after which they were restimulated for an additional 10 days at 37° C. Lymphocytes stimulated over three cycles were collected and used as effectors in a cytotoxicity (CTL) assay.
(§1) To determine the effects of the immunization with […] on activation of melanoma cell-lytic CTLs, we compared the responses of immunized HLA-A2^+ patients 1 and 6 with that of nonimmunized HLA-A2^+ patient 4. As specificity and restriction control we analyzed the responses of nonimmunized HLA-A2^− patients 3 and 5. All of the CTLs were tested for their ability to lyse T2 cells pulsed with the stimulating peptide and A375sm melanoma cells. Lymphocytes collected after three rounds of peptide stimulation were tested for their ability to lyse ^51Cr-labeled targets as described previously (Fisk, et al. J Exp Med 1998;181:2109-17; Murray, et al. Clin Cancer Res 2002;11:3407-18). […] Cold target inhibition of tumor cell lysis experiments was performed as described (Murray, et al. Clin Cancer Res 2002;11:3407-18).

A375SM melanoma cells = experiment: 51Cr release CTL assay against A375SM melanoma cells; settings: for lysis of A375SM cells by peptide-stimulated PBMCs: immunized HLA-A2+ patient 1
Experimental: NP-, I-100, and I-102 on the abscissa indicate corresponding CTL effectors. NP-CTL indicates CTL stimulated by T2 cells and IL-2 without addition of peptides. […] The E:T ratio was 20:1 in a 20 h ^51Cr release assay. FIG. 6C depicts the kinetics of A375SM melanoma cell lysis by NP-CTL (∘), I-100-CTL (●), and I-102-CTL (▴). CTL were incubated with target cells for up to 20 h.
as §1
To determine whether in vitro stimulation with peptides generated CTLs that recognized epitopes on HMW-MAA^+/HLA-A2^+ melanoma cells, PBMCs from immunized HLA-A2^+ patients 1 and 6 were stimulated with I-100 and 1-102 peptides and then tested for their ability to lyse A375SM melanoma cells. […] Therefore, these effectors were designated as I-100 CTL and I-102 CTL, respectively.

[4] = patient 8, −/+, 1° STIM up to 6 days
[5] = HLA-A2+ patients 1, 2 and 6 immunized with MELIMMUNE
[6] = HLA-A2− patients 3, 5, 9 and 10 not immunized
[7] = patient 1, HLA-A2 phenotype/immunization +/+, 1° STIM up to 6 days
[8] = patient 2, +/+, 1° STIM up to 6 days
[9] = patient 3, HLA-A2 −, 1° STIM up to 6 days
[10] = patient 4, +/−, 1° STIM up to 6 days
[11] = patient 5, HLA-A2 −, 1° STIM up to 6 days
[12] = patient 6, +/+, 1° STIM up to 6 days
[13] = patient 7, −/+, 1° STIM up to 6 days
[14] = patient 9, −/−, 1° STIM up to 6 days
[15] = patient 10, −/−, 1° STIM up to 6 days
[16] = PBMCs from HLA-A2+ patient 6 and four HLA-A2− patients, preliminary experiments

Substance	tritiated thymidine incorporated [1, 4]	stimulation index [1, 5]	stimulation index [1, 6]	S.I. (stimulation index) [1, 7]	tritiated thymidine incorporated [1, 7]	S.I. (stimulation index) [1, 8]	S.I. (stimulation index) [1, 9]	S.I. (stimulation index) [1, 10]	S.I. (stimulation index) [1, 11]	S.I. (stimulation index) [1, 12]	tritiated thymidine incorporated [1, 12]	S.I. (stimulation index) [1, 13]	tritiated thymidine incorporated [1, 13]	S.I. (stimulation index) [1, 4]	S.I. (stimulation index) [1, 14]	tritiated thymidine incorporated [1, 14]	S.I. (stimulation index) [1, 15]	tritiated thymidine incorporated [1, 15]	IL-10 levels after restimulation [2]	IFN-γ levels [2]	further results
E71: inactive HLA-A2 epitope from HER-2/neu protein, HER-2 (828-836) (QIAKGMSYL; UniProt P04626 828-836, looked up, fragment) [Peptide E71, reference compound]	685±103 cpm																				tritiated thymidine incorporated ([1]; lymphocytes from HLA-A2+ immunized patients 1, 2 and 6 (NP=353±84 cpm)): 411±190 cpm
LLQLGYSGRL (designed peptide) [Peptide I-102]	650 ± 31 cpm	2.7±0.7	1.2±0.4	(3.3)	1519 ± 92^a cpm	(3.0)	(1.4)	(1.7)	(2.0)	(2.8)	1464 ± 53^a cpm	(1.2)	755 ± 56 cpm	(1.2)	(0.9)	425 ± 40 cpm	(1.0	200 ± 20 cpm	212 ± 24 pg/mL	similar	IFN-γ:IL-10 ratio ([2]; HLA-A2+ patients): 3.96; IFN-γ:IL-10 ratio ([2]; HLA-A2− patients): 0.97; IL-10 after 2° STIM ([2]; PBMCs from HLA-A2+ patients): 155.7 ± 36.3 pg/mL; average IFN-γ levels after 2° STIM ([2]; PBMCs from HLA-A2+ patients): 616.1 ± 86.3 pg/mL; IL-10 after 2° STIM ([2]; PBMCs from HLA-A2− patients): 61.1 ± 25 pg/mL; lysis of T2-I-100 by peptide-stimulated CTL [3]: to a significantly greater extent than control targets T2-NP; lysis of T2 cells pulsed with the stimulating peptide by peptide-stimulated CTL [3]: lysed T2-I-102; lysis of T2-I-102 targets by peptide-stimulated CTL ([3]; nonimmunized HLA-A2− patient 3, compared with T2-NP): no specific lysis; lysis of T2-I-100 and T2-I-102 targets by peptide-stimulated lymphocytes [3]: unable to specifically lyse; lysis of A375SM cells by peptide-stimulated PBMCs (A375SM melanoma cells): effectively lysed A375SM cells; increase of lysis of A375SM cells from 5 h to 20 h (A375SM melanoma cells; peptide-stimulated CTL, kinetics of lysis): 59%
LLQLYSGRL (human; HMW-MAA) [Peptide I-101]																					stimulation of proliferation [1, 16]: did not stimulate; stimulation of IFN-γ and IL-10 secretion [2, 16]: did not stimulate
LLVLLYSKL (mouse; mAb MF11-30) [Peptide I-100]	490 ± 54 cpm	2.7±0.7	1.2±0.4	(2.5)	1123 ± 240^a cpm	(3.3)	(1.1)	(1.5)	(1.7)	(3.1)	1793 ± 58^a cpm	(1.1)	652 ± 77 cpm	(0.9)	(0.7)	334 ± 26 cpm	(0.9)	184 ± 12 cpm	86 ± 11 pg/mL	similar	tritiated thymidine incorporated [1, 9]: 655 ± 51 cpm; IFN-γ and IL-10 levels ([2]; HLA-A2+ patient 6 and HLA-A2− patient 7, after 1° STIM): low; IFN-γ:IL-10 ratio ([2]; HLA-A2+ patients): 3.96; IFN-γ:IL-10 ratio ([2]; HLA-A2− patients): 0.97; IL-10 after 2° STIM ([2]; PBMCs from HLA-A2+ patients): 155.7 ± 36.3 pg/mL; average IFN-γ levels after 2° STIM ([2]; PBMCs from HLA-A2+ patients): 616.1 ± 86.3 pg/mL; IL-10 after 2° STIM ([2]; PBMCs from HLA-A2− patients): 61.1 ± 25 pg/mL; lysis of T2-I-100 by peptide-stimulated CTL [3]: to a significantly greater extent than control targets T2-NP; lysis of T2 cells pulsed with the stimulating peptide by peptide-stimulated CTL [3]: did not lyse T2-I-100; lysis of T2-I-100 and T2-I-102 targets by peptide-stimulated lymphocytes [3]: unable to specifically lyse; lysis of A375SM cells by peptide-stimulated PBMCs (A375SM melanoma cells): effectively lysed A375SM cells
